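Values below derive from 48-hour exposures of cells grown in 96-well plates, with endpoints linearly interpolated between the two concentrations bracketing the appropriate inhibition level. At the GI50, growth is halved.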 Activity calls are given as the source filed them. Cut-off read from the data, not from the text of the source: active = GI50 up to about 1.1 µM and inactive = higher.
Key:
Experiment in all cases: inhibition of tumour cell growth, NCI panel, 48 h
OVCAR-3 = tested on: OVCAR-3
LOX IMVI = tested on: LOX IMVI
A549 = tested on: A549
U-251 = tested on: U-251
TK-10 = tested on: TK-10
CAKI-1 = tested on: CAKI-1
SK-MEL-28 = tested on: SK-MEL-28
T47D = tested on: T47D
HL-60 = tested on: HL-60
MCF7 = tested on: MCF7
DU-145 = tested on: DU-145
RPMI-8226 = tested on: RPMI-8226
OVCAR-8 = tested on: OVCAR-8
HCT-15 = tested on: HCT-15
HOP-92 = tested on: HOP-92
SF-295 = tested on: SF-295
HCC 2998 = tested on: HCC 2998
K562 = tested on: K562
DMS-273 = tested on: DMS-273
UO-31 = tested on: UO-31

SMILES	GI50 (OVCAR-3)	GI50 (LOX IMVI)	GI50 (A549)	GI50 (U-251)	GI50 (TK-10)	GI50 (CAKI-1)	GI50 (SK-MEL-28)	GI50 (T47D)	GI50 (HL-60)	GI50 (MCF7)	GI50 (DU-145)	GI50 (RPMI-8226)	GI50 (OVCAR-8)	GI50 (HCT-15) [µM]	GI50 (HOP-92)	GI50 (SF-295)	GI50 (HCC 2998)	GI50 (K562)	GI50 (DMS-273)	GI50 (UO-31)
O=C1C=CC(=O)c2c1c1c(c3c2C2c4ccccc4C3c3ccccc32)C2c3ccccc3C1c1ccccc12	1.77 µM (inactive)	1.64 µM (inactive)	8.69 µM (inactive)	8.71 µM (inactive)	1.87 µM (inactive)	1.73 µM (inactive)	1.42 µM (inactive)	1.41 µM (inactive)	1.54 µM (inactive)	1.27 µM (inactive)	15.1 µM (inactive)	1.79 µM (inactive)	1.53 µM (inactive)	1.54	1.08 µM (active)	14.9 µM (inactive)	6.92 µM (inactive)	3.69 µM (inactive)	2.11 µM (inactive)	2.04 µM (inactive)
CN(C)CCC(=O)N1CCc2c([nH]c3ccccc23)C1c1cccnc1 (stereo not drawn)	> 100 µM (inactive)	> 100 µM (inactive)	> 100 µM (inactive)	> 100 µM (inactive)	> 100 µM (inactive)	> 100 µM (inactive)	54.2 µM (inactive)	–	> 100 µM (inactive)	–	–	> 100 µM (inactive)	> 100 µM (inactive)	> 100	36.3 µM (inactive)	> 100 µM (inactive)	> 100 µM (inactive)	> 100 µM (inactive)	> 100 µM (inactive)	41.6 µM (inactive)
COC(=O)c1ccc(NCc2cc(O)ccc2O)cc1	10.9 µM (inactive)	10.2 µM (inactive)	14.5 µM (inactive)	9.79 µM (inactive)	17.5 µM (inactive)	21.3 µM (inactive)	18.9 µM (inactive)	1.65 µM (inactive)	1.69 µM (inactive)	6.21 µM (inactive)	12.4 µM (inactive)	1.69 µM (inactive)	11.6 µM (inactive)	10.2	13.3 µM (inactive)	18.2 µM (inactive)	14.4 µM (inactive)	4 µM (inactive)	24.7 µM (inactive)	8 µM (inactive)
C=C1CC2OC2(C(=O)O[C@H]2CCC3[C@@H]4CCC5=CC(=O)CC[C@]5(C)C4CC[C@@]32C)C1=O (stereo partly drawn)	8.51 µM (inactive)	7.94 µM (inactive)	21.3 µM (inactive)	8.97 µM (inactive)	6.49 µM (inactive)	11.9 µM (inactive)	8.87 µM (inactive)	3.3 µM (inactive)	0.83 µM (active)	–	17.8 µM (inactive)	1.47 µM (inactive)	7.59 µM (inactive)	3.68	9.75 µM (inactive)	19.1 µM (inactive)	31.6 µM (inactive)	1.78 µM (inactive)	4.45 µM (inactive)	8.38 µM (inactive)
Cc1c(Cl)cccc1NC(=O)c1cccc([N+](=O)[O-])c1O	5.71 µM (inactive)	5.78 µM (inactive)	11.4 µM (inactive)	9.44 µM (inactive)	41.8 µM (inactive)	9.59 µM (inactive)	9.68 µM (inactive)	–	8.39 µM (inactive)	–	–	3.24 µM (inactive)	21 µM (inactive)	14.4	2.37 µM (inactive)	16.4 µM (inactive)	7.18 µM (inactive)	17.3 µM (inactive)	12.4 µM (inactive)	10.5 µM (inactive)
CC(=O)O[C@H]1CC[C@@]2(C)C(CC[C@]3(C)C2CC[C@]2(C)Oc4c(C)cc(O)cc4C[C@@H]23)C1(C)C (stereo partly drawn)	11.7 µM (inactive)	8.75 µM (inactive)	5.22 µM (inactive)	2.71 µM (inactive)	13.2 µM (inactive)	8.99 µM (inactive)	8.59 µM (inactive)	–	3.82 µM (inactive)	–	–	2.5 µM (inactive)	8.93 µM (inactive)	3.66	6.85 µM (inactive)	2.17 µM (inactive)	7.6 µM (inactive)	3.96 µM (inactive)	3.65 µM (inactive)	8.75 µM (inactive)
CCCC(=O)OC1C(C(O)CO)OC2OC(C)(C)OC21 (stereo not drawn)	> 100 µM (inactive)	> 100 µM (inactive)	> 100 µM (inactive)	> 100 µM (inactive)	> 100 µM (inactive)	> 100 µM (inactive)	> 100 µM (inactive)	> 100 µM (inactive)	–	> 100 µM (inactive)	> 100 µM (inactive)	> 100 µM (inactive)	> 100 µM (inactive)	> 100	> 100 µM (inactive)	> 100 µM (inactive)	> 100 µM (inactive)	–	> 100 µM (inactive)	> 100 µM (inactive)
